From patent publication US8178089B2, “Neuronal progenitors from feeder-free human embryonic stem cell culture” (The University of Georgia Research Foundation, Inc, priority 2004, dated 2012)

Legend:
NEP cells [1] = test: Proliferation of subcultured NEP cells (nuclei count by flow cytometry, day 14); type: cell-based, human; settings: for proliferation rate: long term cultured NEP cells (6 mo)
Experimental: (§1) Effect of LIF and bFGF on subcultured NEP cells. Two groups of cultured NEP cells, one less than 1 month (<1 mo) and the other approximately 6 months (6 mo) in NB27 (described in previous section), were dissociated by 0.05% trypsin to obtain a single-cell suspension, and 50,000 cells/cm^2 were plated in one of the subculture media on polyornithine and laminin-coated dishes. Two concentrations of two growth factors (LIF; 0 or 10 ng/ml and bFGF; 0 or 20 ng/ml) in NB27, were applied to cells. Cells were harvested from each group and nuclei were counted by flow cytometry on days 1 and 14. Plating efficiency rate was calculated as the ratio of cells harvested to cells plated on day 1. Proliferation was measured on day 14. For each replicate, counted nuclei from the four treatment groups were added to obtain an overall total. The total cell number within each group was then divided by the overall total cell number and expressed as a percent.

NEP cells [2] = test: Plating efficiency of subcultured NEP cells (day 1); type: cell-based, human; settings: for plating efficiency versus control: NEP after 6 months in LIF supplemented culture; for effect on plating efficiency / plating efficiency: early NEP cells (1 mo)
Experimental: as §1

OLIG2 expression = test: OLIG2 gene expression by real time RT-PCR in NEP; type: cell-based; settings: human NEP, FIG. 2A
Text: The motor neuron progenitor gene, OLIG2, is expressed early in motor neuron induction. Novitch, et al., Neuron, 31(5), 773-89 (2001). […] Subsequently, we examined expression of the motor neuron gene HLBX9 to investigate the effect of Shh and RA on motor neuron differentiation. Based on the OLIG2 results, bFGF was included at the time of RA or RA plus Shh exposure. The combination of RA and bFGF produced a 2·20 fold increased in HLBX9 expression level, and combining bFGF, Shh and RA increased HLBX9 expression 8·49 fold higher than bFGF alone in human NEP (FIG. 2B).

[3] = system: voltage-gated sodium channels; test: Intracellular calcium measurement (Fluo-3AM, FLIPR) in human neuroprogenitor cells; type: cell-based; settings: 30 μM veratridine, 96-well plates
Experimental: In this experiment, human neuroprogenitor cells were seeded in 96-well plates and incubated with dye loading medium containing 2 μM Fluo-3AM and 0.04% pluronic acid in Locke's buffer. After 45 minutes of incubation, the neuroprogenitor cells were gently washed three times in fresh Locke's buffer. Following the final wash, 150 μl of Locke's buffer was added to each well and the plate was transferred to the FLIPR® incubation chamber (Molecular Devices). […] These cells can therefore be used to determine the effect of an antagonist or agonist on calcium uptake or whether an agent is a likely antagonist or agonist of calcium uptake.

Compound	effect on proliferation of NEP cells (NEP cells [1]; early NEP cells (1 mo), in presence or absence of bFGF)	proliferation rate (NEP cells [1])	plating efficiency versus control (NEP cells [2])	effect on plating efficiency (NEP cells [2])	plating efficiency (NEP cells [2])	OLIG2 expression change (OLIG2 expression)	cell proliferation (group cell number as percent of overall total) (NEP cells [1]; early NEP cells (1 mo), day 14, bFGF 20 ng/ml, control 8.9%) [%]	elevation of intracellular [Ca2+] [3]
LIF: Leukemia Inhibitory Factor, growth factor	no effect	increased proliferation rate	higher plating efficiency than the control	no effect	about 50%			
bFGF: basic fibroblast growth factor, growth factor		increased proliferation rate	higher plating efficiency than the control	no effect	about 50%	significantly increased	38.5	
COc1ccc(C(=O)O[C@H]2CC[C@@]3(C)[C@@H]4CC[C@H]5[C@]6(O)C[C@H](O)[C@@]7(O)[C@@H](CN8C[C@@H](C)CC[C@H]8[C@@]7(C)O)[C@]6(O)C[C@@]53O[C@]24O)cc1OC [veratridine]								~145 % of control
